# Test results published in patent US10583087B2, “Pharmaceutical composition for oral administration” (ASTELLAS PHARMA INC., priority 2015, dated 2020).
# Like-named read-outs stand apart in the source and are kept apart here.
# Assays:
# [1] = Solubility of compound A in JP dissolution test fluids; format: physicochemical
# [2] = Behaviour of compound A upon contact with a solvent (gelation); format: physicochemical; details: solvent such as water
smiles,measurement,setting,value
"CC[C@@H]1CCCN1Cc1sc(NC(=O)c2cnc(N3CCC(C(=O)O)CC3)cn2)nc1-c1ccc(OC)c(C(F)(F)F)c1 [Compound A, 1-{5-[(5-{[(2R)-2-ethylpyrrolidin-1-yl]methyl}-4-[4-methoxy-3-(trifluoromethyl)phenyl]-1,3-thiazol-2-yl)carbamoyl]pyrazin-2-yl}pyperidine-4-carboxylic acid]",pH dependence of solubility,[1],pH-dependent
same,solubility,"[1]; aqueous buffer, second fluid for a dissolution test of the Japanese Pharmacopoeia, JP2 (pH 6.8), read-out: solubility in a neutral pH range",~17.8 µg/mL
same,solubility,"[1]; simulated gastric fluid, first fluid for a dissolution test of the Japanese Pharmacopoeia, JP1 (pH 1.2), read-out: solubility in an acidic pH range",~44.1 µg/mL
same,gelation upon contact with a solvent,[2],gelled upon contact with a solvent
